According to patent publication US6737383B1, “Herbicidal oxadiazolidines” (priority 1999, dated 2004):

Columns and labels:
[1] = test system: bedstraw; assay: Test B pre/postemergence bedstraw; type: in vivo, Galium aparine
In short: (§1)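 Response is a visual 0-to-10 score relative to untreated plants, where 0 means no effect and 10 means complete control, taken twelve to sixteen days after application. Treatments went onto soil at planting and onto foliage of 1- to 4-leaf plants, using a surfactant-containing non-phytotoxic solvent.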

[2] = test system: surinam grass; assay: Test B pre/postemergence surinam grass; type: in vivo, Brachiaria decumbens
In short: as §1

[3] = test system: wild oat; assay: Test B pre/postemergence wild oat; type: in vivo, Avena fatua
In short: as §1

[4] = test system: bamyardgrass; assay: Test B flood test barnyardgrass; type: in vivo, Echinochloa crus-galli
In short: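 Flood test on plants grown to the 2-leaf stage; treated plants kept in greenhouse twelve to sixteen days, then visually rated against controls on a 0 (no effect) to 10 (complete control) scale.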

[5] = Preemergence, Rate 62 g/ha, scale of 0 to 10 where 0 is no effect and 10 is complete control
[6] = Preemergence, Rate 250 g/ha, scale of 0 to 10 where 0 is no effect and 10 is complete control
[7] = Preemergence, Rate 500 g/ha, scale of 0 to 10 where 0 is no effect and 10 is complete control
[8] = Rate 62 g/ha, Postemergence, scale of 0 to 10 where 0 is no effect and 10 is complete control
[9] = Rate 125 g/ha, Postemergence, scale 0 to 10
[10] = Rate 125 g/ha, Preemergence, scale of 0 to 10 where 0 is no effect and 10 is complete control
[11] = Preemergence, Rate 250 g/ha, scale 0 to 10, 0 is no effect, 10 is complete control
[12] = Rate 125 g/ha, Postemergence, scale 0 (no effect) to 10 (complete control)
[13] = Rate 500 g/ha, Postemergence, scale 0 to 10, 0 no effect, 10 complete control
[14] = Rate 62 g/ha, headed Pre-emergence (flood test species), scale 0 to 10 (0 no effect, 10 complete control)
[15] = Rate 125 g/ha, Pre-emergence, flood test species, scale 0 to 10 where 0 is no effect and 10 is complete control
[16] = Rate 250 g/ha, Pre-emergence, flood-test species, scale 0 to 10, 0 is no effect, 10 is complete control
[17] = Rate 500 g/ha, Pre-emergence, flood test species, scale 0 to 10 (0 no effect, 10 complete control)

## CC(C)N(C(=O)n1oc(=O)n(CC(=O)C(C)(C)C)c1=O)c1ccc(F)cc1 [Compound 216]
[1]; [5]
  Bedstraw plant response rating: 0
[1]; [6]
  Bedstraw plant response rating: 0
[1]; [7]
  Plant response rating, Bedstraw: 0
[1]; [8]
  Bedstraw plant response rating: 0
[1]; [9]
  Bedstraw plant response rating: 0
[1]; [10]
  Bedstraw plant response rating: 0
[1]; Rate 250 g/ha, Postemergence
  Plant response rating (0 to 10; 0 is no effect, 10 is complete control), Bedstraw: 2
[2]; [5]
  B. signalgrass plant response rating: 0
[2]; [11]
  B. signalgrass plant response rating: 4
[2]; [7]
  Plant response rating, B. signalgrass: 4
[2]; [8]
  B. signalgrass plant response rating: 0
[2]; [12]
  B. signalgrass plant response rating: 2
[2]; [10]
  B. signalgrass plant response rating: 1
[2]; Rate 250 g/ha, Postemergence
  Plant response rating (0 to 10; 0 is no effect, 10 is complete control), B. signalgrass: 5
[2]; [13]
  B. signalgrass plant response rating: 8
[3]; [5]
  Wild oats plant response rating: 0
[3]; [6]
  Wild oats plant response rating: 0
[3]; [7]
  Plant response rating, Wild oats: 0
[3]; [8]
  Wild oats plant response rating: 0
[3]; [9]
  Wild oats plant response rating: 0
[3]; [10]
  Wild oats plant response rating: 0
[3]; Rate 250 g/ha, Postemergence
  Plant response rating (0 to 10; 0 is no effect, 10 is complete control), Wild oats: 0
[4]; [14]
  Barnyardgrass plant response rating: 0
[4]; [15]
  Barnyardgrass plant response rating: 0
[4]; [16]
  Barnyardgrass plant response rating: 0
[4]; [17]
  Barnyardgrass plant response rating: 0

## CON=C(Cn1c(=O)on(C(=O)N(c2ccc(F)cc2)C(C)C)c1=O)C(F)(F)F [Compound 227]
[1]; [5]
  Bedstraw plant response rating: 0
[1]; [7]
  Plant response rating, Bedstraw: 3
[1]; [8]
  Bedstraw plant response rating: 7
[1]; [9]
  Bedstraw plant response rating: 8
[1]; [10]
  Bedstraw plant response rating: 0
[1]; Rate 250 g/ha, Postemergence
  Plant response rating (0 to 10; 0 is no effect, 10 is complete control), Bedstraw: 8
[1]; [13]
  Bedstraw plant response rating: 8
[2]; [5]
  B. signalgrass plant response rating: 0
[2]; [11]
  B. signalgrass plant response rating: 0
[2]; [7]
  Plant response rating, B. signalgrass: 2
[2]; [8]
  B. signalgrass plant response rating: 0
[2]; [12]
  B. signalgrass plant response rating: 0
[2]; [10]
  B. signalgrass plant response rating: 0
[2]; Rate 250 g/ha, Postemergence
  Plant response rating (0 to 10; 0 is no effect, 10 is complete control), B. signalgrass: 0
[2]; [13]
  B. signalgrass plant response rating: 0
[3]; [5]
  Wild oats plant response rating: 0
[3]; [6]
  Wild oats plant response rating: 3
[3]; [7]
  Plant response rating, Wild oats: 3
[3]; [8]
  Wild oats plant response rating: 0
[3]; [9]
  Wild oats plant response rating: 0
[3]; [10]
  Wild oats plant response rating: 0
[3]; Rate 250 g/ha, Postemergence
  Plant response rating (0 to 10; 0 is no effect, 10 is complete control), Wild oats: 0
[3]; [13]
  Wild oats plant response rating: 2
[4]; [14]
  Barnyardgrass plant response rating: 0
[4]; [15]
  Barnyardgrass plant response rating: 0
[4]; [16]
  Barnyardgrass plant response rating: 0
[4]; [17]
  Barnyardgrass plant response rating: 0

## CCCCc1ccc(N(C(=O)n2oc(=O)n(-c3ccccc3C)c2=O)C(C)C)cc1 [Compound 229]
[1]; [5]
  Bedstraw plant response rating: 0
[1]; [6]
  Bedstraw plant response rating: 0
[1]; [7]
  Plant response rating, Bedstraw: 0
[1]; [8]
  Bedstraw plant response rating: 0
[1]; [9]
  Bedstraw plant response rating: 0
[1]; [10]
  Bedstraw plant response rating: 0
[1]; Rate 250 g/ha, Postemergence
  Plant response rating (0 to 10; 0 is no effect, 10 is complete control), Bedstraw: 0
[1]; [13]
  Bedstraw plant response rating: 0
[2]; [5]
  B. signalgrass plant response rating: 0
[2]; [11]
  B. signalgrass plant response rating: 0
[2]; [7]
  Plant response rating, B. signalgrass: 0
[2]; [8]
  B. signalgrass plant response rating: 0
[2]; [12]
  B. signalgrass plant response rating: 0
[2]; [10]
  B. signalgrass plant response rating: 0
[2]; Rate 250 g/ha, Postemergence
  Plant response rating (0 to 10; 0 is no effect, 10 is complete control), B. signalgrass: 0
[2]; [13]
  B. signalgrass plant response rating: 0
[3]; [5]
  Wild oats plant response rating: 0
[3]; [6]
  Wild oats plant response rating: 0
[3]; [7]
  Plant response rating, Wild oats: 0
[3]; [8]
  Wild oats plant response rating: 0
[3]; [9]
  Wild oats plant response rating: 0
[3]; [10]
  Wild oats plant response rating: 0
[3]; Rate 250 g/ha, Postemergence
  Plant response rating (0 to 10; 0 is no effect, 10 is complete control), Wild oats: 0
[3]; [13]
  Wild oats plant response rating: 0
[4]; [14]
  Barnyardgrass plant response rating: 0
[4]; [15]
  Barnyardgrass plant response rating: 0
[4]; [16]
  Barnyardgrass plant response rating: 0
[4]; [17]
  Barnyardgrass plant response rating: 0

## CCc1ccc(N(C(=O)n2oc(=O)n(-c3ccccc3C)c2=O)C(C)C)cc1 [Compound 230]
[1]; [5]
  Bedstraw plant response rating: 0
[1]; [6]
  Bedstraw plant response rating: 0
[1]; [7]
  Plant response rating, Bedstraw: 0
[1]; [8]
  Bedstraw plant response rating: 0
[1]; [9]
  Bedstraw plant response rating: 0
[1]; [10]
  Bedstraw plant response rating: 0
[1]; Rate 250 g/ha, Postemergence
  Plant response rating (0 to 10; 0 is no effect, 10 is complete control), Bedstraw: 0
[1]; [13]
  Bedstraw plant response rating: 0
[2]; [5]
  B. signalgrass plant response rating: 0
[2]; [11]
  B. signalgrass plant response rating: 0
[2]; [7]
  Plant response rating, B. signalgrass: 0
[2]; [8]
  B. signalgrass plant response rating: 0
[2]; [12]
  B. signalgrass plant response rating: 0
[2]; [10]
  B. signalgrass plant response rating: 0
[2]; Rate 250 g/ha, Postemergence
  Plant response rating (0 to 10; 0 is no effect, 10 is complete control), B. signalgrass: 0
[2]; [13]
  B. signalgrass plant response rating: 0
[3]; [5]
  Wild oats plant response rating: 0
[3]; [6]
  Wild oats plant response rating: 0
[3]; [7]
  Plant response rating, Wild oats: 0
[3]; [8]
  Wild oats plant response rating: 0
[3]; [9]
  Wild oats plant response rating: 0
[3]; [10]
  Wild oats plant response rating: 0
[3]; Rate 250 g/ha, Postemergence
  Plant response rating (0 to 10; 0 is no effect, 10 is complete control), Wild oats: 0
[3]; [13]
  Wild oats plant response rating: 0
[4]; [14]
  Barnyardgrass plant response rating: 0
[4]; [15]
  Barnyardgrass plant response rating: 0
[4]; [16]
  Barnyardgrass plant response rating: 0
[4]; [17]
  Barnyardgrass plant response rating: 0

## CC(C)N(C(=O)n1oc(=O)n(-c2cccnc2)c1=O)c1ccc(F)cc1 [Compound 234]
[1]; [5]
  Bedstraw plant response rating: 0
[1]; [6]
  Bedstraw plant response rating: 0
[1]; [7]
  Plant response rating, Bedstraw: 0
[1]; [8]
  Bedstraw plant response rating: 0
[1]; [9]
  Bedstraw plant response rating: 0
[1]; [10]
  Bedstraw plant response rating: 0
[1]; Rate 250 g/ha, Postemergence
  Plant response rating (0 to 10; 0 is no effect, 10 is complete control), Bedstraw: 0
[1]; [13]
  Bedstraw plant response rating: 0
[2]; [5]
  B. signalgrass plant response rating: 0
[2]; [11]
  B. signalgrass plant response rating: 0
[2]; [7]
  Plant response rating, B. signalgrass: 0
[2]; [8]
  B. signalgrass plant response rating: 0
[2]; [12]
  B. signalgrass plant response rating: 0
[2]; [10]
  B. signalgrass plant response rating: 0
[2]; Rate 250 g/ha, Postemergence
  Plant response rating (0 to 10; 0 is no effect, 10 is complete control), B. signalgrass: 0
[2]; [13]
  B. signalgrass plant response rating: 0
[3]; [5]
  Wild oats plant response rating: 0
[3]; [6]
  Wild oats plant response rating: 0
[3]; [7]
  Plant response rating, Wild oats: 0
[3]; [8]
  Wild oats plant response rating: 0
[3]; [9]
  Wild oats plant response rating: 0
[3]; [10]
  Wild oats plant response rating: 0
[3]; Rate 250 g/ha, Postemergence
  Plant response rating (0 to 10; 0 is no effect, 10 is complete control), Wild oats: 0
[3]; [13]
  Wild oats plant response rating: 0
[4]; [14]
  Barnyardgrass plant response rating: 0
[4]; [15]
  Barnyardgrass plant response rating: 0
[4]; [16]
  Barnyardgrass plant response rating: 0
[4]; [17]
  Barnyardgrass plant response rating: 0
